Source: patent US20230391766A1, “1-(2-(4-CYCLOPROPYL-1H-1,2,3-TRIAZOL-1-YL)ACETYL)-4-HYDROXY-N-(BENZYL)PYRROLIDIN E-2-CARBOXAMIDE DERIVATIVES AS VHL INHIBITORS FOR THE TREATMENT OF ANEMIA AND CANCER” (Genentech, Inc., priority 2020, published 2023)

Tests used:
[1] = biological target: T1, VHL (Homo sapiens, UniProt P40337); assay: VHL nanoBRET (+ Digitonin); format: cell-based
T1 construct: expressed in transfected cells
Experimental: (§1) The VHL NanoBRET™ Target Engagement Assay analyzes the apparent affinity of test compounds for VHL in cells by competitive displacement of a VHL NanoBRET™ tracer reversibly bound to a NanoLuc® VHL fusion protein stably expressed in the cells.
(§2) 50 nL of control compound (10 mM; parental unlabeled VHL antagonist; see structure below) and 50 nL of DMSO (negative control) were dispensed into the appropriate control wells. DMSO was backfilled to a final volume of 50 nL as required. […] Max Signal control wells consisted of DMSO only treated wells. Minimum Signal control wells contained of 10 uM parental unlabeled VHL antagonist (control compound—see structure below). […] Background Signal control wells were prepared without tracer for background correction steps.
(§3) The raw BRET ratio values were calculated by dividing the acceptor emission value (610 nm) by the donor emission value (460 nm) for each sample. To correct for background, the BRET ratio in the absence of tracer (average of no-tracer control samples) was subtracted from the BRET ratio of each sample. Raw BRET units were converted to milliBRET units (mBU) by multiplying each raw BRET value by 1,000. The normalized NanoBRET™ signal was calculated relative to the Max Signal control wells (DMSO treated control wells) and the Minimum Signal control wells. Percentage inhibition was calculated relative to the Minimum Signal control and Maximum Signal control wells. IC50 values were derived by four parameter curve fitting using the Robust method.

[2] = biological target: T1, VHL; assay: VHL HEK-293 BRET Assay (VHL NanoBRET Target Engagement Assay); format: cell-based; settings: for IC50: HEK 293 RT VHL-NanoLuc stable cells, 1 uM tracer, 2 hours, geometric mean where more than one measurement, read-out: VHL binding in cells (HEK293 nanoBRET); for Ratio cell permeability shift: ratio not defined
Experimental: as §1, §2, §3

[3] = biological target: T2, VHL Elongin B/C complex (Homo sapiens, UniProt P40337); assay: Fluorescence Polarization (FP) VHL Binding Assay; settings: fluorescence polarization tracer competition; geometric mean where more than one measurement
T2 construct: amino acids E55-D213 of human VHL with N-terminal His6 tag; His6 (N); TEV-protease cleavage site (N); made in house; host or cells: E. coli
T2 sequence (P40337 55-213): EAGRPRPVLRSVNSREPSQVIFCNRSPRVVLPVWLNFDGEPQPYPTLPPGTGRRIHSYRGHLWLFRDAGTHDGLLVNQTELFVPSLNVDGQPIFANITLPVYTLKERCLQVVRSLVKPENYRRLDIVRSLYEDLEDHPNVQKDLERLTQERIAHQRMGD
T2 sequence (Q15370 whole entry partner, the tested form may be a part): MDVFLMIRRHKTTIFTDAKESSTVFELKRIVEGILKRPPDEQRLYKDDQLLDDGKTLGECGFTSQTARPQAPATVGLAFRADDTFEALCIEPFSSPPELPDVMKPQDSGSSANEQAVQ
T2 sequence (Q15369 17-112 partner limits assumed): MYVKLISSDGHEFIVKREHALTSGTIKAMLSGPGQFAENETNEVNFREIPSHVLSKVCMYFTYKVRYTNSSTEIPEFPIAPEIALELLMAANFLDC
Experimental: The binding of test compounds to the VHL Elongin B/C complex was measured using a fluorescence polarization tracer competition assay. The VHL/Elongin B/C protein complex used in the assay was generated as follows. The coding region for amino acids E55-D213 of human VHL with N-terminal His6 tag with a TEV-protease cleavage site was co-expressed with Elongin B (residues M1-Q118) and Elongin C (Residues M17-C112) in E. coli. The VHL/Elongin B/C complex was purified using an affinity nickel column, anion exchange HiTrap QP HP column chromatography, and gel filtration using a Superdex 75 26/60 column. The purified VHL/Elongin B/C complex was dialyzed into formulation buffer: 20 mM Bis-Tris pH7.0, 150 mM NaCl, 1 mM DTT. A VHL fluorescence polarization probe consisted of a VHL ligand coupled to carboxytetramethylrhodamine (TAMRA); (2S,4R)—N-(2-(2-(3′,6′-bis(dimethylamino)-3-oxo-3H-spiro[isobenzofuran-1,9′-xanthene]-5-carboxamido)ethoxy)-4-(4-methylthiazol-5-yl)benzyl)-4-hydroxy-1-((R)-3-methyl-2-(3-methylisoxazol-5-yl)butanoyl)pyrrolidine-2-carboxamide. […] DMSO was dispensed into wells designated for “VHL control” (without compound) wells. The “Assay Buffer” consisted of 50 mM Tris pH 8.0, 120 mM NaCl, 0.005% Nonidet P-40, and 1% DMSO (v/v). Assay Buffer containing 5.28 μM VHL Elongin B/C complex was prepared and 5 μl dispensed using a BioRapTR (Beckman Coulter) into each well of the assay plate. Assay Buffer was also dispensed into “no VHL control” wells using the same method. A “pre-assay” fluorescence measurement was made using an Infinite® M1000 (Tecan) plate reader (Excitation 530 nm, Emission 574 nm, Bandwidth 10 nm). Assay Buffer containing 3.34 nM of the VHL FP probe was prepared in Assay Buffer and 5 μl dispensed into each well of the assay plate using a BioRapTR (Beckman Coulter). The final VHL/Elongin B/C protein concentration is 2.64 nM and the final probe concentration is 1.67 nM. Assay plates were briefly centrifuged and incubated for 1 hour at room temperature. “Post-assay” fluorescence polarization measurements were made as described for the “pre-assay” fluorescence measurement. Fluorescence polarization was calculated for each sample; taking into account the “pre-assay” fluorescence measurements and subtracting the fluorescence signal of the compound/VHL only (“pre-assay”) measurements from the “post-assay” fluorescence polarization measurements, for each plane of polarization. The data were analyzed using Genedata Screener software and normalized to the “no VHL control” and “VHL control” (without compound). IC50 values were calculated using a four parameter curve fit (Robust method).

T1 sequence (P40337 whole entry): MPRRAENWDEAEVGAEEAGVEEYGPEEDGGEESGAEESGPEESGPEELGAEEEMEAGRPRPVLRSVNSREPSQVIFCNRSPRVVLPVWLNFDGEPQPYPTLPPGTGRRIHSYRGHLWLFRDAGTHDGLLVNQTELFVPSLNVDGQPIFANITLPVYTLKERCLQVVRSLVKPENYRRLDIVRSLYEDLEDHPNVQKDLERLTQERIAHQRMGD

| Compound | EC50 [1] [nM] | IC50 [2] [nM] | Ratio cell permeability shift [2] | IC50 [3] [nM] |
| --- | --- | --- | --- | --- |
| CC(C)(C)[C@@H](C(=O)N1C[C@H](O)C[C@H]1C(=O)N[C@H](Cc1ccc(-c2ccccc2)cc1)C(N)=O)n1cc(C2CC2)nn1 [Example S3, (2S,4R)—N—((R)-3-([1,1′-biphenyl]-4-yl)-1-amino-1-oxopropan-2-yl)-1-((S)-2-(4-cyclopropyl-JH-1,2,3-triazol-1-yl)-3,3-dimethylbutanoyl)-4-hydroxypyrrolidine-2-carboxamide] | 140 | 150 | 0.97 | 150 |
| CC(=O)NCCOCc1cn([C@H](C(=O)N2C[C@H](O)C[C@H]2C(=O)N[C@H](Cc2ccc(-c3ccccc3)cc2)C(N)=O)C(C)(C)C)nn1 [Example S14, (2S,4R)—N—((R)-3-([1,1′-biphenyl]-4-yl)-1-amino-1-oxopropan-2-yl)-1-((S)-2-(4-((2-acetamidoethoxy)methyl)-1H-1,2,3-triazol-1-yl)-3,3-dimethylbutanoyl)-4-hydroxypyrrolidine-2-carboxamide] |  | 20700 | 264.37 | 80 |
| Cc1cnnn1[C@H](C(=O)N1C[C@H](O)C[C@H]1C(=O)N[C@H](Cc1ccc(-c2ccccc2)cc1)C(N)=O)C(C)C [Example S32, (2S,4R)—N—((R)-3-([1,1′-biphenyl]-4-yl)-1-amino-1-oxopropan-2-yl)-4-hydroxy-1-((S)-3-methyl-2-(5-methyl-1H-1,2,3-triazol-1-yl)butanoyl)pyrrolidine-2-carboxamide] | 3640 | 5400 | 1.48 |  |
| Cc1nnn([C@H](C(=O)N2C[C@H](O)C[C@H]2C(=O)N[C@H](Cc2ccc(-c3ccccc3)cc2)C(N)=O)C(C)C)c1C [Example S37, (2S,4R)—N—((R)-3-([1,1′-biphenyl]-4-yl)-1-amino-1-oxopropan-2-yl)-1-((S)-2-(4,5-dimethyl-1H-1,2,3-triazol-1-yl)-3-methylbutanoyl)-4-hydroxypyrrolidine-2-carboxamide] | 1160 | 1660 | 1.43 |  |
| CC(C)[C@@H](C(=O)N1C[C@H](O)C[C@H]1C(=O)N[C@H](Cc1ccc(-c2ccccc2)cc1)C(N)=O)n1cc(-c2cccs2)nn1 [Example S38, (2S,4R)—N—((R)-3-([1,1′-biphenyl]-4-yl)-1-amino-1-oxopropan-2-yl)-4-hydroxy-1-((S)-3-methyl-2-(4-(thiophen-2-yl)-1H-1,2,3-triazol-1-yl)butanoyl)pyrrolidine-2-carboxamide] | 170 | 190 | 1.12 |  |
| C[C@@H](NC(=O)[C@@H]1C[C@@H](O)CN1C(=O)[C@@H](n1cc(C2CC2)nn1)C(C)(C)C)c1ccc(-c2ccccc2F)cc1 [Example S42, (2S,4R)-1-((S)-2-(4-cyclopropyl-1H-1,2,3-triazol-1-yl)-3,3-dimethylbutanoyl)-N—((R)-1-(2′-fluoro-[1,1′-biphenyl]-4-yl)ethyl)-4-hydroxypyrrolidine-2-carboxamide] | 1540 | 1100 | 0.71 |  |
| Cc1ncsc1-c1ccc2c(c1)CCCC[C@@H]2NC(=O)[C@@H]1C[C@@H](O)CN1C(=O)[C@@H](n1cc(C2CC2)nn1)C(C)(C)C [Example S45, (2S,4R)-1-((S)-2-(4-cyclopropyl-1H-1,2,3-triazol-1-yl)-3,3-dimethylbutanoyl)-4-hydroxy-N—((S)-2-(4-methylthiazol-5-yl)-6,7,8,9-tetrahydro-5H-benzo[7]annulen-5-yl)pyrrolidine-2-carboxamide] | 230 | 200 | 0.86 |  |

The next molecules have a lower IC50 [2] than those just listed; values first:

| EC50 [1] [nM] | IC50 [2] [nM] | Ratio cell permeability shift [2] | IC50 [3] [nM] | Compound |
| --- | --- | --- | --- | --- |
| 10 | 10 | 1.22 | 10 | Cc1ncsc1-c1ccc(CNC(=O)[C@@H]2C[C@@H](O)CN2C(=O)[C@@H](n2cc(C3CC3)nn2)C(C)(C)C)cc1 [Example S24, (2S,4R)-1-((S)-2-(4-cyclopropyl-1H-1,2,3-triazol-1-yl)-3,3-dimethylbutanoyl)-4-hydroxy-N-(4-(4-methylthiazol-5-yl)benzyl)pyrrolidine-2-carboxamide] |
| 20 | 20 | 0.88 | 20 | Cc1ncsc1-c1ccc(CNC(=O)[C@@H]2C[C@@H](O)CN2C(=O)[C@@H](n2cc(Cc3ccccc3)nn2)C(C)(C)C)cc1 [Example S27, (2S,4R)-1-((S)-2-(4-benzyl-1H-1,2,3-triazol-1-yl)-3,3-dimethylbutanoyl)-4-hydroxy-N-(4-(4-methylthiazol-5-yl)benzyl)pyrrolidine-2-carboxamide] |
| 110 | 110 | 0.93 |  | CC(C)[C@@H](C(=O)N1C[C@H](O)C[C@H]1C(=O)N[C@H](Cc1ccc(-c2ccccc2)cc1)C(N)=O)n1cc(-c2ccco2)nn1 [Example S39, (2S,4R)—N—((R)-3-([1,1′-biphenyl]-4-yl)-1-amino-1-oxopropan-2-yl)-1-((S)-2-(4-(furan-2-yl)-1H-1,2,3-triazol-1-yl)-3-methylbutanoyl)-4-hydroxypyrrolidine-2-carboxamide] |
| 110 | 80 | 0.74 |  | Cc1ncsc1-c1ccc([C@@H](NC(=O)[C@@H]2C[C@@H](O)CN2C(=O)[C@@H](n2cc(C3CC3)nn2)C(C)(C)C)C(F)(F)F)cc1 [Example S40, (2S,4R)-1-((S)-2-(4-cyclopropyl-1H-1,2,3-triazol-1-yl)-3,3-dimethylbutanoyl)-4-hydroxy-N—((R)-2,2,2-trifluoro-1-(4-(4-methylthiazol-5-yl)phenyl)ethyl)pyrrolidine-2-carboxamide] |
| 10 | 10 | 0.72 |  | C[C@H](NC(=O)[C@@H]1C[C@@H](O)CN1C(=O)[C@@H](n1cc(C2CC2)nn1)C(C)(C)C)c1ccc(-c2ccccc2F)cc1 [Example S41, (2S,4R)-1-((S)-2-(4-cyclopropyl-1H-1,2,3-triazol-1-yl)-3,3-dimethylbutanoyl)-N—((S)-1-(2′-fluoro-[1,1′-biphenyl]-4-yl)ethyl)-4-hydroxypyrrolidine-2-carboxamide] |
| 30 | 30 | 1.03 |  | CC(C)(C)[C@@H](C(=O)N1C[C@H](O)C[C@H]1C(=O)NCc1ccc(-c2ccccc2F)cc1)n1cc(C2CC2)nn1 [Example S43, (2S,4R)-1-((S)-2-(4-cyclopropyl-1H-1,2,3-triazol-1-yl)-3,3-dimethylbutanoyl)-N-((2′-fluoro-[1,1′-biphenyl]-4-yl)methyl)-4-hydroxypyrrolidine-2-carboxamide] |
| < 5 | < 5 |  |  | Cc1ncsc1-c1ccc2c(c1)CCCC[C@H]2NC(=O)[C@@H]1C[C@@H](O)CN1C(=O)[C@@H](n1cc(C2CC2)nn1)C(C)(C)C [Example S44, (2S,4R)-1-((S)-2-(4-cyclopropyl-1H-1,2,3-triazol-1-yl)-3,3-dimethylbutanoyl)-4-hydroxy-N—((R)-2-(4-methylthiazol-5-yl)-6,7,8,9-tetrahydro-5H-benzo[7]annulen-5-yl)pyrrolidine-2-carboxamide] |
| 10 | 10 | 0.84 |  | C[C@H](NC(=O)[C@@H]1C[C@@H](O)CN1C(=O)[C@@H](n1cc(C2CC2)nn1)C(C)(C)C)c1ccc(-c2ccccc2Cl)cc1 [Example S46, (2S,4R)—N—((S)-1-(2′-chloro-[1,1′-biphenyl]-4-yl)ethyl)-1-((S)-2-(4-cyclopropyl-1H-1,2,3-triazol-1-yl)-3,3-dimethylbutanoyl)-4-hydroxypyrrolidine-2-carboxamide] |
